These results are taken from EP1561465A2, “Methods of use of fluoroquinolone compounds against bacteria” (LG Life Sciences, Ltd., priority 1999, dated 2001).

Assay type in all cases: cell-based
The subject of assay [1] is enteropathogenic bacterial strains. The assay is described as follows: MIC by agar dilution (NCCLS M7-A4), enteropathogenic isolates pooled. Particulars: all enteropathogenic isolates except C. jejuni.
In assay [2] the test system is anaerobic cocci and Gram positive pathogens. Put plainly: organism not typed. Particulars: read-out: MIC90s.
For the next assay, the system named is P. aeruginosa. The assay is described as follows: Urinary bactericidal titers (UBT) and AUBTC of volunteers' urine. Particulars: P. aeruginosa (16) Laboratory No. 568; urine after gemifloxacin 320 mg or ofloxacin 400 mg.
In another assay the test system is E. coli. The assay is described as above. Particulars: for AUBTC (range): urine after gemifloxacin 320 mg or ofloxacin 400 mg; for time for which median UBTs exceed 0: reference strain E. coli ATCC 25922, 320 mg gemifloxacin / 400 mg ofloxacin.
In a further assay the test system is P. mirabilis. Described as above. Particulars: P. mirabilis (16) Laboratory No. 414; urine after gemifloxacin 320 mg or ofloxacin 400 mg.
Where [3] appears, read: E. coli (16) Laboratory No. 523.

Structures are written as SMILES. Values after ≈ are worked out from the molar mass of the structure shown.

Regarding `CO/N=C1\CN(c2nc3c(cc2F)c(=O)c(C(=O)O)cn3C2CC2)CC1CN` (racemic) [Gemifloxacin, (R,S)-7-(3-aminomethyl-4-methoxyiminopyrrolidin-1-yl)-1-cyclopropyl-6-fluoro-4-oxo-1,4-dihydro-1,8-naphthyridine-3-carboxylic acid], the “concentration inhibiting 100% of isolates” value in assay [1] is listed as 0.25 mg/L. In assay [2], the MIC was in the range of 0.125 to 2 µg/mL (≈ 0.321 to 5.14 µM). The “AUBTC (range)” value is listed as 48 (12-300) with P. aeruginosa, 546 (174-816) in the assay with E. coli (E. coli (16) ATCC 25922), 237(48-384) with E. coli (setting [3]) and 261 (120-510) with P. mirabilis. Besides, the “time for which median UBTs exceed 0” value with E. coli turned out to be 5 days.
`CC1COc2c(N3CCN(C)CC3)c(F)cc3c(=O)c(C(=O)O)cn1c23` (stereo not drawn) [Ofloxacin, ofloxacin]: the “AUBTC (range)” value with P. aeruginosa is 99 (42-258); in the assay with E. coli (E. coli (16) ATCC 25922), 537 (258-888); in the assay with E. coli (setting [3]) it was 276 (90-516); with P. mirabilis, 438 (276-654). Also, in the assay on E. coli, the “time for which median UBTs exceed 0” value stood at 4 days.
